Source: article PMC5017749, “Preclinical Metabolism, Pharmacokinetics and In Vivo Analysis of New Blood-Brain-Barrier Penetrant Fingolimod Analogues: FTY720-C2 and FTY720-Mitoxy” (PLoS ONE, 2016)

Tests used:
[1] = Metabolic stability (intrinsic clearance) in monkey liver microsomes; format: in vitro ADME, monkey (Cynomolgus); conditions: for percent of the remaining compound: after 60 minute incubation
Description: (§1) Liver microsomal incubations contained 0.1mg/mL microsomal proteins and 1 μM of FTY720-C2 or FTY720-Mitoxy in 100 mM potassium phosphate buffer (pH 7.4) ± an NADPH regenerating system (3.5 mM glucose 6-phosphate, 1.3 mM NADP^+, and 0.4 units/mL glucose-6-phosphate dehydrogenase). Following incubations, reactions were terminated for analysis after 0, 10, 20, 30, and 60 min by the addition of acetonitrile containing C17 sphingosine (300 ng/mL) as the internal standard. Samples were vigorously mixed and centrifuged at 3,400 rpm for 10 min to pellet precipitated proteins. An aliquot of each supernatant was used for LC/MS analysis, for determination of the remaining FTY720-C2 and FTY720-Mitoxy. Similar incubations were performed using a cocktail solution containing 0.2 μM midazolam and 1 μM diclofenac to determine the metabolic activity of the microsomes as an additional control.
(§2) Samples resulting from liver microsomal incubations were analyzed by LC-MS/MS. Aliquots of the supernatants were injected onto an X-Bridge C18 column (2.1 × 50 mm, 3.5-μm particles) (Waters, Milford, MA), preceded by a SecurityGuard C18 guard column (4.0 × 2.0 mm; Phenomenex Inc.). Separations were accomplished with a gradient of 0.1% acetic acid in water (v/v) versus 0.1% acetic acid in acetonitrile: methanol (75:25, v/v) at a rate of 0.8 mL/min. The eluents were further applied into an equipped API 4000 QTrap mass spectrometer (AB Sciex, Foster City, CA) with electrospray ionization (ESI) interface by two coupled LC-10 AT pumps. Peak area ratios of FTY720-C2 or FTY720-Mitoxy against the C17 sphingosine internal standard were used to determine the amount of parent remaining compared to that at 0 min. The percent of FTY720-C2 or FTY720-Mitoxy remaining was calculated by dividing the peak area ratio obtained at each time point by that obtained at 0 min. The in vitro intrinsic clearance (CLint) was calculated by linear regression of the log percent of compound remaining versus time plots using Microsoft Excel, two independent experiments (n = 2) were performed for each compound and species. Then, the mean and standard deviation (SD), of two values for each condition, were calculated using Microsoft Excel with the “AVERAGE” and “STDEV” functions, respectively.

[2] = Metabolic stability (intrinsic clearance) in human liver microsomes; format: in vitro ADME; conditions: for percent of the remaining compound: after 60 minute incubation; for microsomal CLint at 1 μM: pH 7.4, 0.1 mg/mL protein, mean of two determinations
Description: as §1, §2

PP2A = test: Protein phosphatase (PP2A) assay in adrenal glands of treated mice; format: in vivo, male C57BL/6 mice; conditions: for increase of PP2A activity in mouse adrenal gland: as compared to untreated controls, route not given; for increase of PP2A activity in adrenal gland: up to 48 hr postdose, vs untreated control mice
Description: The objectives of this study were to evaluate the pharmacokinetic profiles of FTY720-C2 and FTY720-Mitoxy following single oral and intravenous (IV) dosing of male mice and to determine blood and tissue levels of both compounds at various postdose time points. Male C57BL/6 mice were 8.4 weeks of age and weighed 20.6–24.8 g on the day of dose administration. Each animal was identified by a unique number via an ear tag with a matching cage tag. Mice were administered (two mice per time point) a single equivalent molar dose of either FTY720-C2 (1 mg/kg) or FTY720-Mitoxy (2 mg/kg) by oral or intravenous administration. As the molecular weight of FTY720-Mitoxy (704.72 g/mol) is ~ two times greater than that of FTY720-C2 (349.51 g/mol), the dose level of FTY720-Mitoxy was double that of FTY720-C2. Details of the design showing group assignments, dose groups, dose levels, as well as blood collection and necropsy time points are shown in Table 2. At the appropriate time points after dosing and blood sample collection for bioanalysis, animals were euthanized by CO2 inhalation until unresponsive, followed by decapitation. Brains were rapidly harvested, rinsed with ice cold saline, blotted dry and bisected along the mid-line. The left and right hemispheres of the brain were weighed separately. Each was placed in separate tubes, immediately flash frozen in liquid nitrogen and stored at -70°C prior to evaluation. All samples were labeled with the test facility study number, animal identification number, dose group, date, collection interval, and tissue identity (left or right brain hemisphere). Adrenal glands from each mouse were also collected and flash frozen.
Adrenal glands from treated mice were homogenized in buffer containing 20 mM imidazole-HCl, 2 mM EDTA, 2 mM EGTA, plus protease inhibitors, at 4°C. The homogenates were centrifuged to remove particulates followed by free phosphate removal on MicrospinTM-G-25 columns (GE Healthcare). Aliquots of supernatants were incubated in 4-Nitrophenyl-phosphate (pNPP) buffer consisting of 50 mM Tris-HCl, pH 7.0, 0.1 mM CaCl2 with threonine-phosphopeptide (KRpTIRR) substrate. The reactions were run for 10 min at 30°C and stopped by placing samples on ice. Phosphate levels were determined by measuring absorbance at 650 nm using a Multiskan Spectrum plate reader (Thermo Scientific, Pittsburgh, PA) and were compared to freshly prepared standards as previously described, but using a malachite green solution prepared according to Fathi et al.. Samples from two mice per time point (n = 2) were assayed in triplicate to confirm technical fidelity.

[3] = Metabolic stability (intrinsic clearance) in mouse liver microsomes; format: in vitro ADME, mouse (CD-1); conditions: for percent of the remaining compound: after 60 minute incubation
Description: as §1, §2

In the case of `CCCCCCCCc1ccc(CCC(CO)(CO)NC(C)=O)cc1` [FTY720-C2, N-(1-hydroxy-2-(hydroxymethyl)-4-(4-octylphenyl)butan-2-yl)acetamide], the “intrinsic clearance interpreted in words” value ([1]; monkey liver microsomes) is reported as “moderate”, the “percent of the remaining compound” value ([1]; monkey liver microsomes) is reported as 30.0 ± 0.3% and the microsomal CLint at 1 μM ([1]; pH 7.4, monkey liver microsomes, 0.1 mg/mL protein, 1 μM, mean of two determinations) is reported as 20.2 µL/min/mg. The “intrinsic clearance interpreted in words” value [2] was “moderate”, the “percent of the remaining compound” value [2] was 33.5 ± 4.5% and the microsomal CLint at 1 μM [2] was 18.3 ± 2.4 µL/min/mg. For the same molecule, the “increase of PP2A activity in mouse adrenal gland” value (PP2A) was ~ 2 fold, the “increase of PP2A activity in adrenal gland” value (PP2A; single IV dose (FTY720-C2 1 mg/kg, FTY720-Mitoxy 2 mg/kg)) was 2 fold and the microsomal CLint at 1 μM ([3]; CD-1, pH 7.4, mouse liver microsomes, 0.1 mg/mL protein, 1 μM, mean of two determinations) was 22.5 ± 2.12 µL/min/mg. For the same molecule, the “intrinsic clearance interpreted in words” value ([3]; mouse liver microsomes) was “moderate” and the “percent of the remaining compound” value ([3]; mouse liver microsomes) was 29.5 ± 2.1%.

In the case of `CCCCCCCCc1ccc(CCC(CO)(CO)NC(=O)CC[P+](c2ccccc2)(c2ccccc2)c2ccccc2)cc1` [FTY720-Mitoxy, N-(1-hydroxy-2-(hydroxymethyl)-4-(4-octylphenyl)butan-2-yl)-3’-triphenylphosphoniumpropanamide], the “intrinsic clearance interpreted in words” value ([1]; monkey liver microsomes) is reported as “high”, the “Clint (intrinsic clearance)” value ([1]; monkey liver microsomes, 0.1 mg/mL protein, 1 μM, mean of two determinations) is reported as 135.3 ± 10.61 µL/min/mg and the “percent of the remaining compound” value ([1]; monkey liver microsomes) is reported as 1.4 ± 0.3%. The microsomal CLint at 1 μM ([1]; monkey, liver microsomes, pH 7.4, monkey liver microsomes, 0.1 mg/mL protein, 1 μM, mean of two determinations) was 135 µL/min/mg, the “intrinsic clearance interpreted in words” value [2] was “moderate” and the “percent of the remaining compound” value [2] was 35.5 ± 2.3%. The microsomal CLint at 1 μM [2] was 17.5 ± 1.7 µL/min/mg, the “increase of PP2A activity in mouse adrenal gland” value (PP2A) was ~ 2 fold and the “increase of PP2A activity in adrenal gland” value (PP2A; single oral dose (FTY720-C2 1 mg/kg, FTY720-Mitoxy 2 mg/kg)) was “no stimulating effect”. The microsomal CLint at 1 μM ([3]; CD-1, mouse, liver microsomes, pH 7.4, mouse liver microsomes, 0.1 mg/mL protein, 1 μM, mean of two determinations) was 1.8 µL/min/mg, the “intrinsic clearance interpreted in words” value ([3]; mouse liver microsomes) was “low” and the “Clint (intrinsic clearance)” value ([3]; mouse liver microsomes, 0.1 mg/mL protein, 1 μM, mean of two determinations) was 1.75 ± 1.34 µL/min/mg. For the same molecule, the “percent of the remaining compound” value ([3]; mouse liver microsomes) was 82.5 ± 16.3%.
